Earlier results, collected in US20250064725A1, “OPHTHALMIC PREPARATION OF TYROSINE KINASE INHIBITOR, AND PREPARATION METHOD THEREFOR AND USE THEREOF” (CHENGDU RUIMU BIOPHARMACEUTICALS CO., LTD., priority 2021, published 2025).

How the values were obtained:
[1] = system: age-related macular degeneration; details: oral tablets 50, 100, 200 mg/day
[2] = oral administration of tablets

Row | Compound | Toxicity outcome of the clinical trial [1] | Visual improvement ([1]; after 6 months) | Incidence rate of diarrhea [2] | Incidence rate of fatigue [2] | Incidence rate of hypertension [2] | Incidence rate of loss of appetite [2] | Incidence rate of nausea [2]
1 | Cc1[nH]c(/C=C2\C(=O)Nc3ccc(F)cc32)c(C)c1C(=O)N[C@H]1CCN(C(=O)N(C)C)C1 [Example X-82] | suspended due to its toxicity | non-inferior |  |  |  |  | 
2 | CNC(=O)c1ccccc1Sc1ccc2c(/C=C/c3ccccn3)n[nH]c2c1 [axitinib] |  |  | 55% | 39% | 40% | 34% | 32%
3 | CNC(=O)c1cc(Oc2ccc(NC(=O)Nc3ccc(Cl)c(C(F)(F)F)c3)cc2)ccn1 [sorafenib] |  |  | 53% | 32% | 29% | 29% | 22%
